Results on 98 compounds are retold here after ChEMBL document CHEMBL3507680, “University of Dundee, Gates Library screen for HepG2 cell viability”.

A short description of the series: Human HepG2 cell viability assay in 384 well format. Set-up: dose 125 nL, time 70.5 hour; concentration not given beside the values. The series is classed as toxicity, cell-based. The note with it: HepG2 cells, read-out: Inhibition.
Consider `O=C(c1ccncn1)N1CCO[C@H]2[C@@H](OCc3cccnc3)CC[C@@H]21`, for which the cytotoxicity at 70.5 h is -9.05%. In the case of `CCOCC1CN(C(=O)N(C)C)Cc2nn(C)cc21` (stereo not drawn) it was -5.53%; in that of `Cc1cc(C(=O)N2CC[C@H](OCC3CC3)[C@@H]2Cc2cccnc2)no1`, -4.43%; in that of `CN(Cc1ccco1)C[C@H]1OC[C@@H]2CCN(Cc3nccs3)C[C@@H]21`, -10.1%. `Cc1oncc1C(=O)N1CCC2(CC1)CC(c1ccccc1)C(=O)N2C` (stereo not drawn): the cytotoxicity at 70.5 h was -19%. Then `Cc1cnc(N2CCC3(CCCN(c4ccc(C)nn4)C3)C2)nc1` (stereo not drawn), with 14.4%; and `COCC(=O)N1CCC(c2nc3ccc(-c4ccccc4)cn3n2)CC1`, with -7.3%; and `Cc1ccnn1CCC(=O)N1CCCC2(C1)NC(=O)c1ccccc1O2` (stereo not drawn), with -2.25%. In the case of `Cc1c(CN2CCCC(n3c(=O)oc4ccccc43)C2)cnn1C` (stereo not drawn) it was 17.2%; in that of `Cn1cc(CN2CCCC(n3c(=O)oc4ccccc43)C2)cn1` (stereo not drawn), -0.583%; in that of `COc1nc2cc(C)ccc2cc1CN(C)Cc1n[nH]c2c1CCCC2`, 2.69%. Then `COCC(=O)N1CCC(c2cc3nc(C)cc(C(F)(F)F)n3n2)CC1`, with 25.3%; and `CCN(CC)S(=O)(=O)c1cc2c3c(c1)c(C)cc(=O)n3CCC2`, with 36%. For `CC(C)N1CCCCC1c1cncc(Cl)n1` (stereo not drawn), the cytotoxicity at 70.5 h was found to be 17.6%.

As for `CNc1cc(C)nc(C2COCCN2CCc2ccc(F)cc2)n1` (stereo not drawn), the cytotoxicity at 70.5 h is -4.38%. In the case of `CN1C(=O)CO[C@H]2CCN(C(=O)Cc3ccc4c(c3)CCCC4)CC[C@@H]21` it was -4.91%; in that of `CC(C)N1C(=O)CO[C@H]2CCN(C(=O)c3ccc4c(c3)CCC4)CC[C@@H]21`, -3.57%; in that of `O=C(CCc1ccccc1F)NC1CCCN(c2ccccn2)C1` (stereo not drawn), -5.74%.

In the case of `Cc1oc2c(c1C(=O)N1C[C@H](O)[C@]3(CCCO3)C1)CCCC2`, the cytotoxicity at 70.5 h is -3.22%. In the case of `CC(C)N1CCC(Cn2cc(C(N)=O)cn2)CC1` it was 11.9%. Take `CCOc1ccc(CN2CCC(c3ccn[nH]3)C2)cc1CO` (stereo not drawn): the cytotoxicity at 70.5 h came out at 3.78%. In the case of `CN(CC1CCOCC1)C1CCCN(c2ccccn2)C1` (stereo not drawn) it was -7.08%. In the case of `COc1ccc2c(c1)C(=O)NC1(CC2)CCN(Cc2ccc(F)cc2)C1` (stereo not drawn) it was 5.75%; in that of `COc1ccc2c(c1)C(=O)NC1(CC2)CCN(Cc2ccccn2)C1` (stereo not drawn), -1%; in that of `CN(C1CCCN(c2ccccn2)C1)S(=O)(=O)N1CCOCC1` (stereo not drawn), -2.35%. Consider `CC(C)N1CCOC(c2cc(CCO)[nH]n2)C1` (stereo not drawn), for which the cytotoxicity at 70.5 h is -1.76%.

Regarding `C[C@@]1(O)CCN(C2CCOCC2)C[C@H]1n1ccc(=O)[nH]c1=O`, the cytotoxicity at 70.5 h was -3.9%. In the case of `CC(C)n1nnc(CC(=O)NCC2(c3ccccc3F)CCCC2)n1` it was -10.2%. For `Cc1cc(C)nc(Nc2cc(C)nc(C3CCN(C(C)C)C3)n2)n1` (stereo not drawn), the cytotoxicity at 70.5 h was -5.15%.

In the case of `Cc1ncsc1-c1nnc(C2CCCN2C(=O)CCn2cccn2)o1` (stereo not drawn), the cytotoxicity at 70.5 h is -9.26%. Then `CSCC[C@@H]1CN2CCC[C@H]2CN1Cc1coc2ccc(Cl)cc2c1=O`, with -5.47%; and `CS(=O)(=O)NCC(=O)NC1CCCN(c2ccccn2)C1` (stereo not drawn), with -9.78%; and `CNC(=O)c1sc2ccccc2c1CC1CCCCN1Cc1ncc[nH]1` (stereo not drawn), with -7.25%. Then `O=C1CN(C(=O)C2CN(c3cccc(F)c3)CCO2)CCN1` (stereo not drawn), with -5.92%. With `Cc1ccc2[nH]c(C3CCN(C)CC3)nc2c1`, the cytotoxicity at 70.5 h amounted to 12.7%.

For the compound `CCCN1CCCC(O)(c2nc(C)c(COc3ccccc3)s2)CC1` (stereo not drawn), the cytotoxicity at 70.5 h came out at 13.4%. In the case of `CS(=O)(=O)N1CCCC(Cc2cnc(Br)cn2)C1` (stereo not drawn) it was 22.6%; in that of `CNc1cc(C(=O)N2CCOC(C(=O)NC3CCCC3)C2)ccn1` (stereo not drawn), -2.84%. Then `CN1CCCC(c2cncc(-c3cccc(C(F)(F)F)c3)n2)C1` (stereo not drawn), with -8.63%; and `Cc1cc(C)nc(N2CCC(c3c(C(N)=O)sc4ccccc34)C2)n1` (stereo not drawn), with -3.24%. Regarding `CS(=O)(=O)N1C[C@@H](O)[C@H](N2CCN(c3ccccc3)CC2)C1`, the cytotoxicity at 70.5 h was determined as 22.6%.

`Cc1nnc(C2CCN(c3ncccn3)CC2)o1`: the cytotoxicity at 70.5 h is -15%. Then `NC(=O)c1ccc(C2CN(Cc3ccc(F)cc3)CCO2)nc1` (stereo not drawn), with 27.6%; and `c1ccc(Oc2nccnc2C2CCN(C3CCOCC3)CC2)cc1`, with -7.7%; and `Cc1cc(C2CCCN(S(=O)(=O)N(C)C)C2)ccn1` (stereo not drawn), with 23.8%.

As for `CCCNC(=O)Nc1ncc(-c2cccnc2)s1`, the cytotoxicity at 70.5 h is -9.71%. Then `CC(C)NC(=O)Nc1ncc(-c2cccnc2)s1`, with -4.04%. In the case of `CNC(=O)c1cn[nH]c1C1CCCN1c1nc(C)cc(C)n1` (stereo not drawn) it was -3.88%; in that of `Cc1cnc(CC2COCCN(C(=O)CN3CCOCC3)C2)cn1` (stereo not drawn), -4.65%.

On to `COc1ccc(CC2CN(Cc3cncn3C)CCO2)cc1` (stereo not drawn), for which the cytotoxicity at 70.5 h is -9.57%.

Take `Cc1nc(N)cc(C2CN(C(=O)c3cscn3)CCO2)n1` (stereo not drawn): the cytotoxicity at 70.5 h was -10.9%. In the case of `O=C(O)c1ccccc1-c1cnc(Cn2c(=O)cc[nH]c2=O)s1` it was -6.43%; in that of `Cc1cc(C)nc(C2CCN(C3CCCCC3)C2)n1` (stereo not drawn), -5.66%. In the case of `CC(=O)N[C@@H]1CN(C(=O)Cc2coc3cc(C)ccc23)C[C@H]1O` it was -2.72%; in that of `CCn1ncc(C(=O)NCCc2nc(-c3cccnc3)n[nH]2)c1C`, -3.1%; in that of `CCn1ncc(C(=O)NCCc2nc(-c3ccncc3)n[nH]2)c1C`, -7.04%. Then `CC(C)CC(NC(=O)c1cccs1)c1nc2cccnc2n1C` (stereo not drawn), with -5.14%. With `CC[C@H](Cn1ncc2ccccc2c1=O)NC(=O)c1cnc(C)cn1`, the cytotoxicity at 70.5 h was -12.4%. Turning to `CC[C@H](Cn1ncc2ccccc2c1=O)NC(=O)c1ccccn1`, the cytotoxicity at 70.5 h was -7.7%. Regarding `CC[C@@H](Cn1ncc2ccccc2c1=O)NC(=O)c1cnc(C)cn1`, the cytotoxicity at 70.5 h was -6.57%. In the case of `CNc1ncc(CN(C)CCN2CCCCC2)cn1`, the cytotoxicity at 70.5 h was found to be 36.6%. Then `CC(C(=O)N(Cc1ccc(C#N)cc1)CC(F)(F)F)S(C)(=O)=O` (stereo not drawn), with -10.1%; and `Cc1nc(CNC(=O)NC2CC(C)(C)OC2(C)C)sc1C` (stereo not drawn), with -9.18%. Then `Cc1ccc(-c2nc(CC(=O)NCC3CCCN(C(C)C)C3)cs2)o1` (stereo not drawn), with 11.1%. Then `O=C(CCC(=O)N1CCc2ccccc2C1)c1cccs1`, with 2.72%. `COCc1nc(-c2ccc(S(=O)(=O)N3CCCC3)cc2)cs1`: the cytotoxicity at 70.5 h was -3.85%.

As for `CC(c1ccccc1F)N(CC(N)=O)C1CC1` (stereo not drawn), the cytotoxicity at 70.5 h was -4.03%. In the case of `CCC(=O)c1ccc(OCC(=O)NCC2CCCO2)cc1` (stereo not drawn) it was 0.0654%. `CN(Cc1ccc(F)c(F)c1)C(=O)CCc1nc(-c2nnc[nH]2)no1`: the cytotoxicity at 70.5 h was -4.47%.

As for `CCOCCNC(=O)c1cnc(Sc2nccn2C)c(Cl)c1`, the cytotoxicity at 70.5 h is 2.36%.

`COCCN1CCC(CNc2nc3ccccc3o2)CC1`: the cytotoxicity at 70.5 h is 1.47%.

Consider `COCCN1CCC(CNc2cnc3ccccc3n2)CC1`, for which the cytotoxicity at 70.5 h was -1.83%. Then `CN1CCN(C(=O)c2cn(-c3ccc(C(F)(F)F)cn3)nn2)CC1`, with -6.96%; and `CCN(CC)C(=O)c1cnc(Sc2nccn2C)c(Cl)c1`, with -3.32%.

For the compound `CCc1ccc2c(c1)C(CCNC(=O)Cc1ccc(F)cc1)C(=O)N2` (stereo not drawn), the cytotoxicity at 70.5 h came out at 11.8%. As for `CCc1ccc2c(c1)C(CCNC(=O)Cc1cccc(F)c1)C(=O)N2` (stereo not drawn), the cytotoxicity at 70.5 h is -4.81%. In the case of `CC(c1ccccc1Cl)N(C(=O)CSCC(N)=O)C1CC1` (stereo not drawn) it was 12.5%; in that of `CN(CC1CC1)C(=O)c1cc2c(c(S(N)(=O)=O)c1)CCC2`, 2.25%; in that of `CCOc1cc(CNC(=O)NC2CC=CC2)ccc1OC(F)F`, -5.65%. In the case of `Cc1ccc(-n2cc(C)cn2)c(NC(=O)NC2(C)CCOC2)c1` (stereo not drawn) it was -2.69%. Turning to `CCOc1cccc(CNC(=O)NC2CC=CC2)c1OC(F)F`, the cytotoxicity at 70.5 h is 0.101%. With `Cc1ccc(Cl)c(NC(=O)NC2(C)CCOC2)c1` (stereo not drawn), the cytotoxicity at 70.5 h was -5.5%. Then `Cn1cc([C@@H]2CN(S(=O)(=O)c3cccnc3)C[C@H]2N)c2ccncc21`, with 24%; and `COc1ccccc1C(=O)N1CCNCC1C(N)=O` (stereo not drawn), with -2.25%; and `COc1cccc2[nH]c(C(=O)N3CCNCC3C(N)=O)cc12` (stereo not drawn), with 10.8%. As for `Nc1ccc(-c2cnc(C3CCCN3)cn2)cn1` (stereo not drawn), the cytotoxicity at 70.5 h was -8.2%. Then `CS(=O)(=O)c1ccc(-c2cnc(C3CCCN3)cn2)cc1` (stereo not drawn), with -11.3%. In the case of `Cc1nc(-c2ccccc2)cc(C2CCNCC2)n1` it was 7.58%.

Turning to `CC(CN1CCOCC1)n1cncc1-c1ccc2c(c1)CCCN2C` (stereo not drawn), the cytotoxicity at 70.5 h was -10.1%. Take `CC(=O)NC1CCN(c2cc(C3CCNCC3)ccn2)CC1`: the cytotoxicity at 70.5 h is -2.92%. In the case of `Cc1ccc(CN2CC(C(=O)Nc3ccccc3)C3(CCOCC3)C2)s1` (stereo not drawn) it was -13.1%; in that of `Cn1cc(C(=O)N[C@@H]2CN(Cc3cccs3)[C@@H]3CCCO[C@@H]32)cn1`, -14.7%.

On to `Cc1nc(CN2C(=O)COC3(CCN(Cc4ccco4)CC3)C2C)cs1` (stereo not drawn), for which the cytotoxicity at 70.5 h is -1.55%. In the case of `CC(C)N(C)Cc1cn2c(n1)CN(C(=O)Cc1ccsc1)CC2` it was 0.0105%; in that of `COc1ccc(CN2C[C@@H](OCc3csc(C)n3)[C@H]3COC[C@H]32)cc1`, -3.55%. Then `Cc1nc(CO[C@@H]2CN(Cc3cnn(C)c3)[C@@H]3COC[C@@H]32)cs1`, with 5.43%; and `Cc1cc(C(F)(F)F)n2nc(C3CCCN3C3CCSCC3)cc2n1` (stereo not drawn), with -2.47%; and `CC(=O)N1CCC(N2CCC(c3nc(C)cc(C)n3)C2)CC1` (stereo not drawn), with -3.99%.
